Source: ChEMBL document CHEMBL1150967, “Two new diterpene glycosides from the soft coral lemnalia bournei” (J Nat Prod, 1998)
Converted amounts (≈) assume the structure as drawn.

How the values were obtained:
Type in all cases: functional, cell-based
[1] = Cytotoxicity against mouse S180A cells
[2] = Cytotoxicity against mouse EAC cells; details: Ehrlich
[3] = Cytotoxicity against human HepA cells

| Compound | IC50 [1] | IC50 [2] | IC50 [3] |
| --- | --- | --- | --- |
| CC1=C[C@H]2[C@H]([C@H](C)CCC[C@@H](C)C3OC[C@H]4O[C@@H](O3)[C@H](O)[C@@H](O)[C@@H]4O)CC=C(C)[C@H]2CC1 (some centres undefined) [LEMNABOURSIDE] | 27.4 µg/mL (≈ 60.8 µM) | 97.8 µg/mL (≈ 217 µM) | 31.6 µg/mL (≈ 70.1 µM) |
| CC(=O)O[C@H]1[C@H](O)[C@@H](O)[C@@H]2O[C@@H]([C@H](C)CCC[C@H](C)[C@@H]3CC=C(C)[C@H]4CCC(C)=C[C@@H]34)OC[C@H]1O2 [LEMNABOURSIDE C] | 187 µg/mL (≈ 379 µM) | 40.5 µg/mL (≈ 82.2 µM) | 41.4 µg/mL (≈ 84 µM) |
| CC(=O)O[C@@H]1[C@@H](O)[C@@H]2O[C@@H]([C@H](C)CCC[C@H](C)[C@@H]3CC=C(C)[C@H]4CCC(C)=C[C@@H]34)OC[C@@H](O2)[C@H]1O [LEMNABOURSIDE B] | 40 µg/mL (≈ 81.2 µM) | 73.3 µg/mL (≈ 149 µM) | 33.5 µg/mL (≈ 68 µM) |
